Several values for one entry are separate records, joined by “and”; a condition that tells them apart may be missing. Identical values can stand only once. Like-named read-outs stand apart in the source and are kept apart here.
Experiments:
[1] = LLC-PK1 MOCK/MDR1 monolayer model, results stated for both cell lines jointly; conditions: pig
Protocol: Monitoring of TEER value and LY permeability. After the LLC-PK1 MOCK/MDR1 cells attach to the Transwell insert, TEER (Transepithelial Electrical Resistance) values were continuously recorded using a cell resistance meter (Beijing JINGONGHONGTAI Technology Co., Ltd). These TEER values represent the mean from six individual inserts (n = 6) measured per group. The TEER measurement and transport experiment were conducted at 37 °C, using a heating plate to maintain the required temperature. The transmembrane resistance was calculated using the formula TEER = (Rtotal-Rblank) × Aarea, where Rblank represents the TEER of the blank chamber.
The permeability of the Lucifer Yellow CH Dipotassium Salt (LY, 100 μM) across the monolayers was measured in apical-to-basolateral direction to monitor the integrity of the cell monolayer.
Bidirectional transport experiments. […] The transwell experiments were conducted following above-mentioned procedure.

[2] = parameters: method as in not given; conditions: stated without method; ref not given; cited from earlier work
[3] = cited from earlier work
[4] = Bidirectional transport across LLC-PK1 MOCK monolayer (Transwell); conditions: pig; for efflux ratio at 2 h, 2 µM: LLC-PK1, pH 7.4, ER, Papp (B-A)/Papp (A-B); for recovery at 2 h, 2 µM: pH 7.4, Recovery after correction of intracellular accumulation data, cell lysate included, mean±SD, n=3;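 for all read-outs here: compound quantified by LC-MS/MS in donor and receiver wells, efflux ratio as B-A over A-B Papp, recovery relative to initial donor amount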
P-gp (human MDR1) [5] = test: Bidirectional transport across LLC-PK1-MDR1 monolayer stably expressing human MDR1 (P-gp) (Transwell); conditions: pig; for efflux ratio at 2 h, 2 µM: LLC-PK1, pH 7.4, ER, LLC-PK1-MDR1, Papp (B-A)/Papp (A-B);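 for all read-outs here: 2 h incubation at 37 °C, receiver HBSS with 10 mM Hepes plus 1% BSA, LC-MS/MS of donor and receiver, recovery as receiver plus donor amount over initial donor amount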
Protocol: (§3) The overexpression and functional activity of P-glycoprotein (P-gp) in the LLC-PK1-MDR1 cells were rigorously validated through multiple methods.
(§4) Cells were passaged at 80−90% confluence (every 2−3 days) using trypsin-EDTA solution. […] The culture medium was replaced every other day, including 200 µL culture medium in the apical and 850 µL cell culture medium in the basolateral side. LLC-PK1 MOCK cells were used at passages of 3−30. LLC-PK1-MDR1 cells were cultured and passaged in the same manner as LLC-PK1 cells except at the density of 1 × 10^4 cells per well. LLC-PK1-MDR1 cells were used at passages of 3−25. For LLC-PK1 MOCK cells and LLC-PK1-MDR1 cells, the experiments were performed on the 4th and 7th day after seeding.
(§5) Monitoring permeability of positive control drugs. […] Samples were collected from the donor well at the start of the incubation (50 µL) as C0, and from the donor and receiver wells at the end of the incubation (50 µL). All samples were stored at - 40 °C for LC-MS/MS analysis.
(§6) Bidirectional transport experiments. […] The transwell experiments were conducted following above-mentioned procedure. […] When the recovery rate of the tested drug is below 80%, the possibility of intracellular accumulation should be considered. The polycarbonate (PC) membrane where cells are grown should be carefully peeled off from the cell culture medium and placed in 100 µL of HBSS buffer solution. […] The process was carried out on ice to prevent heat-induced degradation, applying a power in the range of 300 W for a total duration of 20 minutes. Thereafter, a quantitative analysis of the intracellular drug was conducted, and the drug recovery rate was recalculated based on this analysis.
(§7) The apparent permeability coefficient (Papp, cm/s) was calculated for each transport direction, A-B and B-A, using the following equation: Papp=dQ/dt×1/A×C0 where dQ/dt is the permeation rate (µmol/s), A is the surface area of the insert (0.33 cm^2, Corning), and C0 is the initial donor concentration (µM).
(§8) The efflux ratio (ER) is calculated as the ratio of Papp (B-A)/Papp (A-B). Recovery=TRcumrf+Cdf×VD/Cdi×VD×100% Where TRcumrf is the cumulative transported mass in the receiver chamber at the end of the incubation (nmol), Cdf is the concentration of the drug in the donor chamber at the end of the incubation (μM), VD is the volume of the donor chamber (mL), and Cdi is the initial concentration of the drug in the donor chamber (μM).
(§9) The method of the bidirectional transport experiment was the same as before.

in vitro [6] = conditions: rat, plasma
Protocol: (§1) Stocks (10 mM) of test compounds were diluted to 5 μM with plasma or tissue homogenate and dialyzed at 37 °C for 6 hours in a shaking incubator. After incubation aliquots of both plasma or tissue homogenate and buffer from the device were taken and added to equal volumes of blank buffer and plasma or tissue homogenate respectively. Samples were then diluted in acetonitrile containing an internal standard prior to centrifugation and analysis of the supernatants by LC-MS/MS. The fu, plasma was calculated using Equation 1:(1) fu,plasma=Concbuffer chamber/Concsample chamber
(§2) Unbound fractions of test drugs in plasma (fu,plasma) and brain tissue (fu,brain). For compounds with existing rat plasma or brain protein-binding data from literature or internal studies, values were directly adopted.

in vitro [7] = conditions: rat, brain homogenate
Protocol: as §1
Rat fraction unbound in brain (fu, brain) was determined as the ratio of concentration in buffer to that in brain.
as §2

in vivo = conditions: rat
From the text: In vivo unbound brain distribution data (Kp,uu,Brain) for 16 drugs and total brain distribution data (Kp,Brain) for 16 drugs was acquired from literature. […] For each tested compound, fifteen rats were randomly divided into five groups of three rats each. […] The time of execution of the rats by CO2 inhalation after administration was optimized according to the in vivo elimination rate to achieve five concentrations of different time points. After the rats were euthanized, cardiac puncture was performed immediately to remove as much whole blood as possible (~7 ml) from the systemic circulation (Quantitatively aliquot 0.2 ml of whole blood for the determination of drug concentration in plasma). Afterwards, the brain tissue was collected immediately and rinsed repeatedly with ice-cold saline 3 times. Then, the surface saline was blotted dry with clean filter paper to remove as much residual drug in the blood vessels as possible. Plasma samples were prepared by centrifugation of the blood samples at 2,500 g for 10 minutes at 4 °C. All brain samples were homogenized by adding 4-fold volume water. All samples were stored at -40 °C before LC-MS/MS analysis. […] The brain tissue partition coefficient (Kp, brain) and brain-to-plasma unbound drug partition ratio (Kp,uu, brain) are calculated according to the following formulas, respectively: Kp,brain=AUC(0−∞,brain)/AUC(0−∞,plasma)Kp,uu,brain=Kp,brain×(fu,tissue/fu,plasma)
Free brain-to-plasma distribution coefficients (Kp,uu,brain) of 41 drugs. Brain distribution coefficients (Kp,uu,brain) were calculated for 41 drugs. […] Plasma and brain concentration-time profiles were generated, and AUC(0-t) values for both matrices were calculated using WinNolin 8.1. Kp,brain was derived as the ratio of brain-to-plasma AUC(0-t).
Kp,uu,brain values were computed by normalizing Kp,brain to unbound fractions (fu,plasma and fu,brain).

in vitro [8] = conditions: pig, LLC-PK1 MOCK cell monolayer (Transwell), pH 7.4
P-gp (human MDR1) [9] = test: in vitro; conditions: pig, LLC-PK1, pH 7.4
Protocol: as §3, §4, §5, §6, §7, §8, §9

LLC-PK1 MOCK cells = test: Bidirectional transport across LLC-PK1 MOCK monolayer (Transwell); conditions: LLC-PK1 MOCK, 2 µM, 2 h, mean ± s, n = 3; BLQ = below 2 nM;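 note: compound quantified by LC-MS/MS in donor and receiver wells, efflux ratio as B-A over A-B Papp, recovery relative to initial donor amount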
LLC-PK1-MDR1 cells [10] = test system: LLC-PK1-MDR1 cells
Protocol: as §3, §4, §5, §6, §7, §8, §9

[11] = footnote b, species not stated; ref https://go.drugbank.com; cited from earlier work
LLC-PK1-MDR1 cells [12] = test: Bidirectional transport across LLC-PK1-MDR1 monolayer stably expressing human MDR1 (P-gp) (Transwell); conditions: LLC-PK1-MDR1, positive control drugs run with each batch (n = 15), 2 µM;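 note: 2 h incubation at 37 °C, receiver HBSS with 10 mM Hepes plus 1% BSA, LC-MS/MS of donor and receiver, recovery as receiver plus donor amount over initial donor amount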
Protocol: as §3, §4, §5, §6, §7, §8, §9

[13] = LLC-PK1, pH 7.4, Papp A-B, LLC-PK1-MDR1, 2 µM, 2 h, mean ± s, n = 3
[14] = LLC-PK1 MOCK and LLC-PK1-MDR1 cell monolayers (Transwell), pH 7.4, Recovery after cell lysate extraction, intracellular drug included
[15] = LLC-PK1 MOCK and LLC-PK1-MDR1 cell monolayers (Transwell), pH 7.4, Recovery, bidirectional transport, uncorrected
[16] = LLC-PK1 MOCK and LLC-PK1-MDR1 cell monolayers (Transwell), pH 7.4, with bafilomycin A1 1 µM (inhibitor of lysosomal function), Recovery, with 1 µM Bafilomycin A1, bidirectional transport
[17] = LLC-PK1, pH 7.4, Papp A-B, LLC-PK1 MOCK, 2 µM, 2 h, mean ± s, n = 3, BLQ = below 2 nM
[18] = LLC-PK1 MOCK cell monolayer (Transwell), B-A, LLC-PK1 MOCK
[19] = LLC-PK1 MOCK cell monolayer (Transwell), A-B, LLC-PK1 MOCK

Row | Structure (SMILES) | pKa [2] | Papp B→A at 2 h, 2 µM ([4]; LLC-PK1, pH 7.4) [×10⁻⁶ cm/s] | efflux ratio at 2 h, 2 µM ([4]; LLC-PK1 MOCK) | Papp B→A at 2 h, 2 µM (P-gp (human MDR1) [5]; LLC-PK1, pH 7.4) [×10⁻⁶ cm/s] | efflux ratio at 2 h, 2 µM (P-gp (human MDR1) [5]) | fraction unbound at 6 h, 5 µM (in vitro [6]) | fraction unbound at 6 h, 5 µM (in vitro [7]) | recovery at 2 h, 2 µM (in vitro [8]) [%] | recovery at 2 h, 2 µM (P-gp (human MDR1) [9]) [%] | Papp A-B (LLC-PK1 MOCK cells) | Papp A→B at 2 h, 2 µM (P-gp (human MDR1) [5]; [13]) [×10⁻⁶ cm/s] | recovery at 2 µM [1, 14] [%] | recovery at 2 µM [1, 15] [%] | recovery at 2 µM [1, 16] [%] | Papp A→B at 2 h, 2 µM [4, 17] [×10⁻⁶ cm/s] | recovery at 2 h, 2 µM [4, 18] [%] | also measured
1 | COc1ccc2cc1Oc1ccc(cc1)C[C@H]1c3cc(c(OC)cc3CCN1C)Oc1c(OC)c(OC)cc3c1[C@H](C2)N(C)CC3 [Tetrandrine] | > 7 | 4.19 ± 0.77 | 1.33 | 13 ± 2.24 | 8.4 |  |  |  |  |  |  |  |  |  |  |  | recovery at 2 µM ([1]; pH 7.4, Recovery after cell lysate extraction, intracellular drug included): > 80%; recovery at 2 µM ([1]; pH 7.4, Recovery, bidirectional transport, uncorrected): < 80%; recovery at 2 µM ([1]; pH 7.4, Recovery, with 1 µM Bafilomycin A1, bidirectional transport): 80 to 120%; Kp, Brain ([3]; ref Wang [2024]): 24.3; Kp,uu,Brian ([3]; ref Wang [2024]): 0.80; Papp A→B at 2 h, 2 µM ([4]; LLC-PK1, pH 7.4): 3.15 ± 0.23 ×10⁻⁶ cm/s; recovery at 2 h, 2 µM ([4]; A-B, LLC-PK1 MOCK): 54.1 ± 7.24%; recovery at 2 h, 2 µM ([4]; B-A, LLC-PK1 MOCK): 93.5 ± 6.72%; Papp A→B at 2 h, 2 µM (P-gp (human MDR1) [5]; LLC-PK1, pH 7.4): 1.55 ± 0.29 ×10⁻⁶ cm/s
2 | CC(C)(C)NCC(O)c1ccc(O)c(CO)c1 (stereo not shown) [Salbutamol] |  | 0.21 ± 0.02 |  | 2.66 ± 0.21 | 1.42 | 0.78 | 0.315 | 98.1 ± 2.21 | 98.2 ± 0.36 | BLQ | 1.88 ± 0.35 |  |  |  |  |  | Kp uu (in vivo): 0.01; Kp, Brain ([3]; footnote a, ref Internal data): 0.021^a
3 | CN(Cc1cnc2nc(N)nc(N)c2n1)c1ccc(C(=O)N[C@@H](CCC(=O)O)C(=O)O)cc1 [Methotrexate] |  |  |  | 0.45 ± 0.05 | 0.81 |  |  | 85.8 ± 4.58 | 83.3 ± 5.67 | BLQ | 0.55 ± 0.1 |  |  |  |  |  | Kp, Brain ([3]; ref Fridén [2009]): 0.004; Kp,uu,Brian ([3]; ref Fridén [2009]): 0.006; Papp B-A (LLC-PK1 MOCK cells): BLQ
4 | CCN(CC)CCNC(=O)c1c(C)[nH]c(/C=C2\C(=O)Nc3ccc(F)cc32)c1C [Sunitinib] | > 7 | 6.21 ± 0.2 |  | 21.8 ± 1.08 |  | 0.017 | < 0.01 |  |  |  | 2.23 ± 0.21 | > 80 | < 80 | 80 to 120 | 9.31 ± 0.74 | 89.2 ± 8.92 | Kp (in vivo; SD, iv, 1 mg/kg, Kp, Brain): 0.965; Kp (in vivo; SD, iv, 1 mg/kg, Kp,uu,Brian): 0.563; recovery (LLC-PK1-MDR1 cells [10]): 116% and 97%
5 | CN(C)CCC=C1c2ccccc2CCc2ccccc21 [Amitriptyline] | > 7 | 13.8 ± 1.58 | 1.38 | 12.7 ± 1.19 | 1.85 |  |  |  |  |  | 6.84 ± 0.72 | > 80 | < 80 | 80 to 120 | 9.98 ± 0.69 | 90 ± 9.68 | Kp, Brain ([3]; ref Fridén [2009]): 20.15; Kp,uu,Brian ([3]; ref Fridén [2009]): 0.73; recovery at 2 h, 2 µM [4, 19]: 80.01 ± 0.69%
6 | COc1cccc2c1C(=O)c1c(O)c3c(c(O)c1C2=O)C[C@@](O)(C(=O)CO)C[C@@H]3O[C@H]1C[C@H](N)[C@H](O)[C@H](C)O1 [Doxorubicin] |  | 0.09 ± 0.01 |  | 3.47 ± 0.39 |  |  | < 0.01 |  |  | BLQ |  |  |  |  |  |  | Kp uu (in vivo; SD, iv, 1 mg/kg): < 0.012; Kp (in vivo; SD, iv, 1 mg/kg, Kp, Brain): 0.291; Kp (in vivo; SD, iv, 1 mg/kg, Kp,uu,Brian): 0.012; Protein binding in plasma [11]: 75^b %; Papp A→B at 2 h, 2 µM (P-gp (human MDR1) [5]; LLC-PK1, pH 7.4): 0.95 ± 0.16 ×10⁻⁶ cm/s
7 | Fc1ccc([C@@H]2CCNC[C@H]2COc2ccc3c(c2)OCO3)cc1 [Paroxetine] | > 7 | 14.8 ± 0.57 | 1.93 | 10.9 ± 0.35 | 2.11 | 0.021 | < 0.01 | 54.1 ± 1.86 |  |  | 5.15 ± 0.55 | > 80 | < 80 | 80 to 120 | 7.65 ± 0.2 | 92.7 ± 4.03 | Kp (in vivo; Kp,uu,Brian): 1.57; Kp, Brain ([3]; ref O’Brien et al. [2012]): 3.307; recovery at 2 h, 2 µM [4, 19]: 97.6 ± 1.99%
8 | COCCc1ccc(OCC(O)CNC(C)C)cc1 (stereo not shown) [Metoprolol] |  | 24 ± 1.39 |  |  |  |  |  | 114 ± 8.95 | 116 ± 1.08 |  |  |  |  |  | 30.1 ± 3.88 |  | Papp A→B at 2 h, 2 µM ([4]; LLC-PK1, pH 7.4, Papp (A-B), LLC-PK1 MOCK, positive control drugs run with each batch (n = 15), 2 µM): > 20 ×10⁻⁶ cm/s; Papp A-B (LLC-PK1-MDR1 cells [12]): exceeded 20 × 10^−⁶ cm/s
